This note sets out measurements from patent US20060110803A1 (Crucell Holland B.V., priority 2003, published 2006).

The subject of the assay is antibodies in sera of individuals which have been and/or are infected by SARS-CoV (SARS-green, SARS-yellow, 1a, 1b, 2, 6, 37, 62, London). The assay is classed as binding, human.

AKNLNESLIDLQELG [SEQ ID NO:1186]: the “recognition by sera of SARS-CoV infected individuals, looped/cyclic form” value (“recognition by sera … looped/cyclic form” for short) is on record as “recognized in looped/cyclic form”.

Regarding AKTSVDCNMYICGDS [SEQ ID NO:742], the “recognition by sera of SARS-CoV infected individuals, linear form” value (“recognition by sera … linear form” below) was “recognized in linear form”. Take ALNTLVKQLSSNFGA [SEQ ID NO:968]: the “recognition by sera … looped/cyclic form” value was “recognized in looped/cyclic form”. For the sequence ALVSGTATAGWTFGA [SEQ ID NO:886], the “recognition by sera … linear form” value was “recognized in linear form”. Regarding AQALNTLVKQLSSNF [SEQ ID NO:966], the “recognition by sera … looped/cyclic form” value is listed as “recognized in looped/cyclic form”. As for ATAGWTFGAGAALQI [SEQ ID NO:892], the “recognition by sera … linear form” value is given as “recognized in linear form”. Same read-out and setting: the value for CNMYICGDSTECANL [SEQ ID NO:748] was “recognized in linear form”. CTPPALNCYWPLNDY [SEQ ID NO:495]: the “recognition by sera … looped/cyclic form” value was “recognized in looped/cyclic form”. For DCNMYICGDSTECAN [SEQ ID NO:747], the “recognition by sera … linear form” value is recorded as “recognized in linear form”. Consider DKVEAEVQIDRLITG [SEQ ID NO:995], for which the “recognition by sera … looped/cyclic form” value is given as “recognized in looped/cyclic form”. As to DKYFKNHTSPDVDLG [SEQ ID NO:1149], the “recognition by sera … looped/cyclic form” value is recorded as “recognized in looped/cyclic form”. For DPLQPELDSFKEELD [SEQ ID NO:1137], the “recognition by sera … looped/cyclic form” value was “recognized in looped/cyclic form”. For the sequence DRLNEVAKNLNESLI [SEQ ID NO:1180], the “recognition by sera … looped/cyclic form” value was “recognized in looped/cyclic form”. Take DSFKEELDKYFKNHT [SEQ ID NO:1144]: the “recognition by sera … looped/cyclic form” value is recorded as “recognized in looped/cyclic form”. In the case of DVVNQNAQALNTLVK [SEQ ID NO:960], the “recognition by sera … looped/cyclic form” value was “recognized in looped/cyclic form”.

For ELDKYFKNHTSPDVD [SEQ ID NO:1147], the “recognition by sera … looped/cyclic form” value is on record as “recognized in looped/cyclic form”. Consider ELDSFKEELDKYFKN [SEQ ID NO:1142], for which the “recognition by sera … looped/cyclic form” value is recorded as “recognized in looped/cyclic form”. As to ESLTTTSTALGKLQD [SEQ ID NO:946], the “recognition by sera … looped/cyclic form” value was “recognized in looped/cyclic form”. Regarding EVAKNLNESLIDLQE [SEQ ID NO:1184], the “recognition by sera … looped/cyclic form” value is recorded as “recognized in looped/cyclic form”. On the same count and under the same terms, the value for EVMPVSMAKTSVDCN [SEQ ID NO:735] was “recognized in looped/cyclic form”; that for FIAGLIAIVMVTILL [SEQ ID NO:1216] was “recognized in looped/cyclic form”; that for FIFLLFLTLTSGSDL [SEQ ID NO:41] was “recognized in looped/cyclic form”. Consider FKNHTSPDVDLGDIS [SEQ ID NO:1152], for which the “recognition by sera … looped/cyclic form” value was “recognized in looped/cyclic form”. In the case of FLLFLTLTSGSDLDR [SEQ ID NO:43], the “recognition by sera … looped/cyclic form” value is reported as “recognized in looped/cyclic form”. On to FLTLTSGSDLDRCTT [SEQ ID NO:46], for which the “recognition by sera … looped/cyclic form” value is listed as “recognized in looped/cyclic form”.

With FNGLTVLPPLLTDDM [SEQ ID NO:865], the “recognition by sera … looped/cyclic form” value is “recognized in looped/cyclic form”. Regarding FSPDGKPCTPPALNC [SEQ ID NO:488], the “recognition by sera … linear form” value is given as “recognized in linear form”. For GFIAGLIAIVMVTIL [SEQ ID NO:1215], the “recognition by sera … looped/cyclic form” value is recorded as “recognized in looped/cyclic form”. The same measure, in the same setting: the value for GSDLDRCTTFDDVQA [SEQ ID NO:52] was “recognized in looped/cyclic form”.

For GTATAGWTFGAGAAL [SEQ ID NO:890], the “recognition by sera … linear form” value is given as “recognized in linear form”. GVYYPDEIFRSDTLY [SEQ ID NO:78]: the “recognition by sera … looped/cyclic form” value is “recognized in looped/cyclic form”. HTSPDVDLGDISGIN [SEQ ID NO:1155]: the “recognition by sera … looped/cyclic form” value is on record as “recognized in looped/cyclic form”. Turning to HTSSMRGVYYPDEIF [SEQ ID NO:72], the “recognition by sera … looped/cyclic form” value is reported as “recognized in looped/cyclic form”. On to ICGDSTECANLLLQY [SEQ ID NO:752], for which the “recognition by sera … linear form” value is listed as “recognized in linear form”. As for IFLLFLTLTSGSDLD [SEQ ID NO:42], the “recognition by sera … looped/cyclic form” value was “recognized in looped/cyclic form”.

Turning to IINNTVYDPLQPELD [SEQ ID NO:1130], the “recognition by sera … looped/cyclic form” value is on record as “recognized in looped/cyclic form”.

Turning to INNTVYDPLQPELDS [SEQ ID NO:1131], the “recognition by sera … looped/cyclic form” value is “recognized in looped/cyclic form”.

In the case of IQESLTTTSTALGKL [SEQ ID NO:944], the “recognition by sera … looped/cyclic form” value is on record as “recognized in looped/cyclic form”. As for ITTEVMPVSMAKTSV [SEQ ID NO:732], the “recognition by sera … looped/cyclic form” value is recorded as “recognized in looped/cyclic form”. Turning to KFNGLTVLPPLLTDD [SEQ ID NO:864], the “recognition by sera … looped/cyclic form” value is recorded as “recognized in looped/cyclic form”. On to KNHTSPDVDLGDISG [SEQ ID NO:1153], for which the “recognition by sera … looped/cyclic form” value was “recognized in looped/cyclic form”. Take KNLNESLIDLQELGK [SEQ ID NO:1187]: the “recognition by sera … looped/cyclic form” value is listed as “recognized in looped/cyclic form”. For KTSVDCNMYICGDST [SEQ ID NO:743], the “recognition by sera … linear form” value is “recognized in linear form”. As for KYFKNHTSPDVDLGD [SEQ ID NO:1150], the “recognition by sera … looped/cyclic form” value is “recognized in looped/cyclic form”.

On to LDKVEAEVQIDRLIT [SEQ ID NO:994], for which the “recognition by sera … looped/cyclic form” value is listed as “recognized in looped/cyclic form”.

As for LDKYFKNHTSPDVDL [SEQ ID NO:1148], the “recognition by sera … looped/cyclic form” value is listed as “recognized in looped/cyclic form”. Take LDSFKEELDKYFKNH [SEQ ID NO:1143]: the “recognition by sera … looped/cyclic form” value is on record as “recognized in looped/cyclic form”.

Take LFLTLTSGSDLDRCT [SEQ ID NO:45]: the “recognition by sera … looped/cyclic form” value is listed as “recognized in looped/cyclic form”. Regarding LGFIAGLIAIVMVTI [SEQ ID NO:1214], the “recognition by sera … looped/cyclic form” value was “recognized in looped/cyclic form”. LLFLTLTSGSDLDRC [SEQ ID NO:44]: the “recognition by sera … looped/cyclic form” value is given as “recognized in looped/cyclic form”. As for LNEVAKNLNESLIDL [SEQ ID NO:1182], the “recognition by sera … looped/cyclic form” value is recorded as “recognized in looped/cyclic form”.

On to LQDVVNQNAQALNTL [SEQ ID NO:958], for which the “recognition by sera … looped/cyclic form” value was “recognized in looped/cyclic form”. As to LQPELDSFKEELDKY [SEQ ID NO:1139], the “recognition by sera … looped/cyclic form” value is listed as “recognized in looped/cyclic form”. Regarding LTLTSGSDLDRCTTF [SEQ ID NO:47], the “recognition by sera … looped/cyclic form” value is recorded as “recognized in looped/cyclic form”.

Take LTSGSDLDRCTTFDD [SEQ ID NO:49]: the “recognition by sera … looped/cyclic form” value is “recognized in looped/cyclic form”. As to LTTTSTALGKLQDVV [SEQ ID NO:948], the “recognition by sera … looped/cyclic form” value was “recognized in looped/cyclic form”.

Turning to LVSGTATAGWTFGAG [SEQ ID NO:887], the “recognition by sera … linear form” value is “recognized in linear form”. Take MFIFLLFLTLTSGSD [SEQ ID NO:40]: the “recognition by sera … looped/cyclic form” value is “recognized in looped/cyclic form”. In the case of MRGVYYPDEIFRSDT [SEQ ID NO:76], the “recognition by sera … looped/cyclic form” value is reported as “recognized in looped/cyclic form”. Turning to MYICGDSTECANLLL [SEQ ID NO:750], the “recognition by sera … linear form” value was “recognized in linear form”. Take NAQALNTLVKQLSSN [SEQ ID NO:965]: the “recognition by sera … looped/cyclic form” value is recorded as “recognized in looped/cyclic form”. Regarding NEVAKNLNESLIDLQ [SEQ ID NO:1183], the “recognition by sera … looped/cyclic form” value was “recognized in looped/cyclic form”. Turning to NGLTVLPPLLTDDMI [SEQ ID NO:866], the “recognition by sera … looped/cyclic form” value is “recognized in looped/cyclic form”. With NHTSPDVDLGDISGI [SEQ ID NO:1154], the “recognition by sera … looped/cyclic form” value is “recognized in looped/cyclic form”. As to NLNESLIDLQELGKY [SEQ ID NO:1188], the “recognition by sera … looped/cyclic form” value is listed as “recognized in looped/cyclic form”. As for NMYICGDSTECANLL [SEQ ID NO:749], the “recognition by sera … linear form” value is recorded as “recognized in linear form”. Take NNTVYDPLQPELDSF [SEQ ID NO:1132]: the “recognition by sera … looped/cyclic form” value is listed as “recognized in looped/cyclic form”.

With NQNAQALNTLVKQLS [SEQ ID NO:963], the “recognition by sera … looped/cyclic form” value is “recognized in looped/cyclic form”. Turning to NTVYDPLQPELDSFK [SEQ ID NO:1133], the “recognition by sera … looped/cyclic form” value is “recognized in looped/cyclic form”. On to NVPFSPDGKPCTPPA [SEQ ID NO:485], for which the “recognition by sera … linear form” value is on record as “recognized in linear form”. Take PCTPPALNCYWPLND [SEQ ID NO:494]: the “recognition by sera … looped/cyclic form” value is on record as “recognized in looped/cyclic form”. With PELDSFKEELDKYFK [SEQ ID NO:1141], the “recognition by sera … looped/cyclic form” value is “recognized in looped/cyclic form”. In the case of PFSPDGKPCTPPALN [SEQ ID NO:487], the “recognition by sera … linear form” value was “recognized in linear form”. On to PLQPELDSFKEELDK [SEQ ID NO:1138], for which the “recognition by sera … looped/cyclic form” value was “recognized in looped/cyclic form”.
